Measurements taken from PubChem BioAssay (NCI).
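Growth conditions: 96-well plates. Treatment: test compound, 48 hours, 5 concentrations. Analysis: linear interpolation between bracketing concentrations; unreached endpoints set to highest concentration. TGI marks complete inhibition of growth.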

How the values were obtained:
Assay in all cases: NCI tumour cell line growth inhibition, 48 h
BT-549 breast = system: BT-549 breast
NCI-H23 lung = system: NCI-H23 lung
SK-OV-3 ovarian = system: SK-OV-3 ovarian
HCT-15 colon = system: HCT-15 colon
MDA-MB-435 = system: MDA-MB-435
A498 renal = system: A498 renal
NCI-H226 lung = system: NCI-H226 lung
K-562 leukemia = system: K-562 leukemia
786-0 renal = system: 786-0 renal
RXF 393 renal = system: RXF 393 renal

O=C1Nc2ccccc2SC1=C(C(=O)c1ccccc1)C(=O)c1ccccc1
TGI (BT-549 breast): > 90.2 µM | TGI (NCI-H23 lung): > 90.8 µM | TGI (SK-OV-3 ovarian): 65.3 µM | TGI (HCT-15 colon): > 100 µM | TGI (MDA-MB-435): 55.6 µM | TGI (A498 renal): > 80.3 µM | TGI (NCI-H226 lung): > 87.5 µM | TGI (K-562 leukemia): > 100 µM | TGI (786-0 renal): > 100 µM | TGI (RXF 393 renal): > 100 µM

Fc1ccc2c(c1)nc1n2C(c2c(F)cccc2F)SC1 (stereo unspecified)
TGI (BT-549 breast): > 100 µM | TGI (NCI-H23 lung): > 100 µM | TGI (SK-OV-3 ovarian): > 100 µM | TGI (HCT-15 colon): > 100 µM | TGI (MDA-MB-435): > 100 µM | TGI (A498 renal): > 100 µM | TGI (NCI-H226 lung): > 100 µM | TGI (786-0 renal): > 100 µM | TGI (RXF 393 renal): > 100 µM

COc1ccc(/N=N/C(=NNC(=O)c2ccc(C)cc2)c2ccc(N(C)C)cc2)cc1
TGI (BT-549 breast): 82.9 µM | TGI (NCI-H23 lung): > 100 µM | TGI (SK-OV-3 ovarian): > 100 µM | TGI (HCT-15 colon): > 100 µM | TGI (MDA-MB-435): 62.7 µM | TGI (A498 renal): > 100 µM | TGI (NCI-H226 lung): > 100 µM | TGI (K-562 leukemia): > 100 µM | TGI (786-0 renal): > 100 µM | TGI (RXF 393 renal): > 100 µM

CC1=NN(c2nc(N)nc(-c3cc4ccccc4oc3=N)n2)C(C)(C)C1
TGI (BT-549 breast): 47 µM | TGI (NCI-H23 lung): 29.7 µM | TGI (SK-OV-3 ovarian): 34.7 µM | TGI (HCT-15 colon): 35.9 µM | TGI (MDA-MB-435): 41.8 µM | TGI (A498 renal): 66.9 µM | TGI (NCI-H226 lung): 30.4 µM | TGI (K-562 leukemia): 53.1 µM | TGI (786-0 renal): 29.8 µM | TGI (RXF 393 renal): 43.5 µM

CC(C)(CO)CNc1cc(Cl)nc(N)n1
TGI (BT-549 breast): > 100 µM | TGI (NCI-H23 lung): > 100 µM | TGI (HCT-15 colon): > 100 µM | TGI (MDA-MB-435): > 100 µM | TGI (A498 renal): > 100 µM | TGI (NCI-H226 lung): > 100 µM | TGI (K-562 leukemia): > 100 µM | TGI (786-0 renal): > 100 µM | TGI (RXF 393 renal): > 100 µM

c1ccc(OCc2nnc(CCCCCCCCc3nnc(COc4ccccc4)o3)o2)cc1
TGI (BT-549 breast): > 100 µM | TGI (NCI-H23 lung): > 100 µM | TGI (SK-OV-3 ovarian): > 100 µM | TGI (HCT-15 colon): > 100 µM | TGI (MDA-MB-435): > 100 µM | TGI (A498 renal): > 100 µM | TGI (NCI-H226 lung): > 100 µM | TGI (K-562 leukemia): > 100 µM | TGI (786-0 renal): > 100 µM | TGI (RXF 393 renal): 30.8 µM

Nc1c(C(=O)O)nnc2cc(Cl)ccc12
TGI (BT-549 breast): > 100 µM | TGI (NCI-H23 lung): > 100 µM | TGI (SK-OV-3 ovarian): > 100 µM | TGI (HCT-15 colon): > 100 µM | TGI (MDA-MB-435): > 100 µM | TGI (A498 renal): > 100 µM | TGI (NCI-H226 lung): > 100 µM | TGI (K-562 leukemia): > 100 µM | TGI (786-0 renal): > 100 µM

Nc1ccn(CC(O)c2cc3ccccc3[nH]2)c(=O)n1 (stereo unspecified)
TGI (BT-549 breast): > 100 µM | TGI (NCI-H23 lung): > 100 µM | TGI (SK-OV-3 ovarian): > 100 µM | TGI (HCT-15 colon): > 100 µM | TGI (MDA-MB-435): > 100 µM | TGI (A498 renal): > 100 µM | TGI (NCI-H226 lung): > 100 µM | TGI (K-562 leukemia): > 100 µM | TGI (786-0 renal): > 100 µM | TGI (RXF 393 renal): > 100 µM

O=C1C=CC(=O)c2c(O)c(N(CCCl)CCCl)c(Cl)c(O)c21
TGI (BT-549 breast): > 7.26 µM | TGI (NCI-H23 lung): > 8.05 µM | TGI (SK-OV-3 ovarian): > 10 µM | TGI (HCT-15 colon): > 8.58 µM | TGI (MDA-MB-435): 5.83 µM | TGI (A498 renal): > 9.53 µM | TGI (NCI-H226 lung): > 10 µM | TGI (K-562 leukemia): > 10 µM | TGI (786-0 renal): > 7.67 µM | TGI (RXF 393 renal): > 6.69 µM

O=C(O)C1CSC2(CCCN(Cc3ccccc3)C2)N1 (stereo unspecified)
TGI (BT-549 breast): > 100 µM | TGI (NCI-H23 lung): > 100 µM | TGI (SK-OV-3 ovarian): > 100 µM | TGI (HCT-15 colon): > 100 µM | TGI (MDA-MB-435): > 100 µM | TGI (A498 renal): > 100 µM | TGI (NCI-H226 lung): > 100 µM | TGI (K-562 leukemia): > 81.1 µM | TGI (786-0 renal): > 100 µM | TGI (RXF 393 renal): > 100 µM

CN1C/C(=C\c2cccs2)C(=O)/C(=C/c2cccs2)C1
TGI (BT-549 breast): 72.1 µM | TGI (NCI-H23 lung): > 100 µM | TGI (SK-OV-3 ovarian): > 100 µM | TGI (HCT-15 colon): > 100 µM | TGI (MDA-MB-435): 34.1 µM | TGI (A498 renal): 71.2 µM | TGI (NCI-H226 lung): > 100 µM | TGI (K-562 leukemia): > 100 µM | TGI (786-0 renal): 49.2 µM | TGI (RXF 393 renal): 54.8 µM

C=C(Cl)CN1c2ccccc2C=Cc2ccccc21
TGI (BT-549 breast): > 100 µM | TGI (NCI-H23 lung): > 100 µM | TGI (SK-OV-3 ovarian): > 100 µM | TGI (HCT-15 colon): > 100 µM | TGI (MDA-MB-435): 44.7 µM | TGI (A498 renal): 66.9 µM | TGI (NCI-H226 lung): 70.2 µM | TGI (786-0 renal): > 100 µM | TGI (RXF 393 renal): 33 µM

CCN(CC)CCNc1ccc([N+](=O)[O-])c2nc3ccc(OC)cc3c(N)c12
TGI (BT-549 breast): 2.72 µM | TGI (NCI-H23 lung): 3.53 µM | TGI (SK-OV-3 ovarian): 3.58 µM | TGI (HCT-15 colon): 2.68 µM | TGI (MDA-MB-435): 2.98 µM | TGI (A498 renal): 3.08 µM | TGI (NCI-H226 lung): 4.41 µM | TGI (K-562 leukemia): 0.665 µM | TGI (786-0 renal): 1.66 µM | TGI (RXF 393 renal): 2.58 µM

CC(C)OP(=O)(OC(C)C)/C(C#N)=C/c1c[nH]c2ccccc12
TGI (BT-549 breast): 89.3 µM | TGI (NCI-H23 lung): > 100 µM | TGI (SK-OV-3 ovarian): > 100 µM | TGI (HCT-15 colon): > 100 µM | TGI (MDA-MB-435): > 100 µM | TGI (A498 renal): > 100 µM | TGI (NCI-H226 lung): > 100 µM | TGI (K-562 leukemia): > 100 µM | TGI (786-0 renal): > 100 µM | TGI (RXF 393 renal): > 100 µM

CCOC(=O)C1=C(C)N(Cc2ccccc2)C2(O)C(OC)CC(=O)C3C(=O)N(c4ccccc4)C(=O)C132 (stereo unspecified)
TGI (BT-549 breast): 24.3 µM | TGI (NCI-H23 lung): > 100 µM | TGI (HCT-15 colon): > 100 µM | TGI (MDA-MB-435): > 100 µM | TGI (A498 renal): 50.6 µM | TGI (NCI-H226 lung): 37.5 µM | TGI (K-562 leukemia): > 100 µM | TGI (786-0 renal): > 100 µM | TGI (RXF 393 renal): 94.1 µM

Cc1ccsc1/C=N/Nc1cc(C)c2ccccc2n1
TGI (BT-549 breast): 44.8 µM | TGI (NCI-H23 lung): 31.3 µM | TGI (SK-OV-3 ovarian): 35.6 µM | TGI (HCT-15 colon): 28.2 µM | TGI (MDA-MB-435): 30 µM | TGI (A498 renal): 23 µM | TGI (NCI-H226 lung): 37.1 µM | TGI (K-562 leukemia): 78.4 µM | TGI (786-0 renal): 31.8 µM | TGI (RXF 393 renal): 47.8 µM

CCCCCCCCCCOc1ccc(N=Nc2nnc(-c3ccc(OCCCCC)cc3)s2)cc1
TGI (BT-549 breast): > 100 µM | TGI (NCI-H23 lung): > 100 µM | TGI (SK-OV-3 ovarian): > 100 µM | TGI (HCT-15 colon): > 100 µM | TGI (MDA-MB-435): > 100 µM | TGI (A498 renal): > 100 µM | TGI (K-562 leukemia): > 100 µM | TGI (786-0 renal): > 100 µM | TGI (RXF 393 renal): > 100 µM

COc1cc(-c2nc(SC)nc3c2CCc2ccccc2-3)cc(OC)c1OC
TGI (BT-549 breast): > 100 µM | TGI (NCI-H23 lung): > 100 µM | TGI (SK-OV-3 ovarian): > 100 µM | TGI (MDA-MB-435): > 100 µM | TGI (A498 renal): > 100 µM | TGI (K-562 leukemia): 79.2 µM | TGI (786-0 renal): > 100 µM | TGI (RXF 393 renal): > 100 µM

COc1ccc(C2=Nc3c(nc(SC)[nH]c3=O)NC(c3ccccc3)C2)cc1 (stereo unspecified)
TGI (BT-549 breast): 66.1 µM | TGI (NCI-H23 lung): 45.6 µM | TGI (SK-OV-3 ovarian): 51.9 µM | TGI (MDA-MB-435): > 100 µM | TGI (A498 renal): > 100 µM | TGI (NCI-H226 lung): 65.2 µM | TGI (K-562 leukemia): 66 µM | TGI (786-0 renal): > 100 µM | TGI (RXF 393 renal): 39 µM
